“And” between values parts separate entries of the source, which are not always exact repeats. Equal entries are not always repeated. Structures can show the parent of a compound that is named as a salt.
Molecular target: T1, human CTPS1 (Homo sapiens, UniProt P17812)
T1 construct: purchased Proteros biostructures GmbH
T1 sequence (P17812 1-591): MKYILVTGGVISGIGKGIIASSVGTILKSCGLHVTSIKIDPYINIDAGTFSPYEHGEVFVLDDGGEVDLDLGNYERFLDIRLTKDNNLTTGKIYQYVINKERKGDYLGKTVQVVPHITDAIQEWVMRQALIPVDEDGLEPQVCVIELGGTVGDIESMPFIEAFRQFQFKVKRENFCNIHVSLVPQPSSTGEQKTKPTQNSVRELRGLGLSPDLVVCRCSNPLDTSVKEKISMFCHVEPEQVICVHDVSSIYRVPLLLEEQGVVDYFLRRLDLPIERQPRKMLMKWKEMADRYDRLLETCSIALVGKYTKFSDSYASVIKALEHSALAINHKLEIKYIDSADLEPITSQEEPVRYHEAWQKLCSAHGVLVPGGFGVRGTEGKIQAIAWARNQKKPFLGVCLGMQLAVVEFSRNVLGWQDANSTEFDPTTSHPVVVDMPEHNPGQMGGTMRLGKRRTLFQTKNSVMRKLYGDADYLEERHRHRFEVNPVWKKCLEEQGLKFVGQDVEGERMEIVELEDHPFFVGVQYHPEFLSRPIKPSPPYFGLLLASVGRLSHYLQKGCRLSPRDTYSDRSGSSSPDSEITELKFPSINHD
Experiment: Human CTPS1 enzyme inhibition (ADP-Glo Max assay)
Assay type: biochemical
Conditions: Table 17, 25° C., read-out: CTPS1 (Human CTPS1 Enzyme Inhibition data grouped by potency range)
Method in brief: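 ADP-Glo Max luminescence detection of ATP-to-ADP conversion by the enzyme, in 50 mM Tris, 10 mM MgCl2, 0.01% Tween-20, pH 8.0, with 2 mM L-cysteine added fresh. Enzyme preincubated with compound 10 minutes at 25° C. Percentage inhibition calculated per compound concentration.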

IC50 [nM]	Structure (SMILES)
< 100	COCCC(C(=O)Nc1ccc(-c2cncc(OC)c2)cn1)c1csc(NS(=O)(=O)C2CC2)n1 (stereo not shown) [T171]
1000 to 10000	CCC(C(=O)Nc1ccc(-c2cncc(C#N)n2)cn1)c1csc(NS(=O)(=O)C2CC2)n1 (stereo not shown) [T178]
100 to 1000	O=C(Cc1csc(NS(=O)(=O)C2CC2)n1)Nc1ccc(-c2cccnc2)cc1Cl [T16, N-(2-chloro-4-(pyridin-3-yl)phenyl)-2-(2-(cyclopropanesulfonamido)thiazol-4-yl)acetamide]
< 100	CCC(C(=O)Nc1ccc(-c2cncc(OC)n2)cc1F)c1csc(NS(=O)(=O)C2CC2)n1 (stereo not shown) [T208]
< 100	CCC(C(=O)Nc1ccc(-c2cccnc2)cc1F)c1csc(NS(=O)(=O)C2CC2)n1 (stereo not shown) [T201]
< 100	CCC(C(=O)Nc1ccc(-c2cncc(C#N)c2)cc1F)c1csc(NS(=O)(=O)C2CC2)n1 (stereo not shown) [T202]
< 100	CCC(C(=O)Nc1ccc(-c2cncc(OC3CC3)n2)cc1)c1csc(NS(=O)(=O)C2CC2)n1 (stereo not shown) [T77]
100 to 1000	CC(C)C(C(=O)Nc1ccc(-c2cccnc2)cc1)c1csc(NS(=O)(=O)C2CC2)n1 (single isomer, unassigned) [T13, 2-(2-(cyclopropanesulfonamido)thiazol-4-yl)-3-methyl-N-(4-(pyridin-3-yl)phenyl)butanamide.HCl]
< 100	CCC(C(=O)Nc1ccc(-c2cccnc2)cc1)c1csc(NS(=O)(=O)C2CC2)n1 (single isomer, unassigned) [T7, 2-(2-(cyclopropanesulfonamido)thiazol-4-yl)-N-(4-(pyridin-3-yl)phenyl)butanamide.HCl]
< 100	CCC(C(=O)Nc1ccc(-c2cncc(OC)n2)cn1)c1csc(NS(=O)(=O)C2CC2)n1 (stereo not shown) [T176]
< 100	CCC(C(=O)Nc1ccc(-c2cnccn2)cc1F)c1csc(NS(=O)(=O)C2CC2)n1 (stereo not shown) [T196]
< 100	CCC(C(=O)Nc1ccc(-c2cncc(C(F)(F)F)n2)cc1)c1csc(NS(=O)(=O)C2CC2)n1 (single isomer, unassigned) [T106]

The remaining lines, values behind:

Structure (SMILES)	IC50 [nM]
COCCC(C(=O)Nc1ccc(-c2cnccn2)cn1)c1csc(NS(=O)(=O)C2CC2)n1 (stereo not shown) [T170]	100 to 1000
CCOc1cncc(-c2ccc3c(c2)CCN3C(=O)C(CC)c2csc(NS(=O)(=O)C3CC3)n2)n1 (stereo not shown) [T206]	< 100
COCCC(C(=O)Nc1ccc(-c2cncc(OC)n2)cc1)c1csc(NS(=O)(=O)C2CC2)n1 (stereo not shown) [T190]	< 100
CCOc1cncc(-c2ccc(NC(=O)C(C)c3csc(NS(=O)(=O)C4CC4)n3)cc2)n1 (stereo not shown) [T192]	< 100
CC(C)C(C(=O)Nc1ccc(-c2cncnc2)cc1)c1csc(NS(=O)(=O)C2CC2)n1 (stereo not shown) [T11, 2-(2-(cyclopropanesulfonamido)thiazol-4-yl)-3-methyl-N-(4-(pyrimidin-5-yl)phenyl)butanamide]	100 to 1000

Same assay, conditions: Table 18, additional potency data, 25° C., read-out: CTPS1 (Human CTPS1 Enzyme Inhibition data grouped by potency range)

IC50	Structure (SMILES)
< 100 nM	CCC(C(=O)Nc1ccc(-c2cncc(C(F)(F)F)n2)cc1F)c1csc(NS(=O)(=O)C2CC2)n1 (single isomer, unassigned) [T458]
< 100 nM	CCOc1cncc(-c2ccc(NC(=O)C(OC)c3csc(NS(=O)(=O)C4CC4)n3)c(F)c2)n1 (stereo not shown) [T409, 2-(2-(cyclopropanesulfonamido)thiazol-4-yl)-N-(4-(6-ethoxypyrazin-2-yl)-2-fluorophenyl)-2-methoxyacetamide]
< 100 nM	COC(C(=O)Nc1ccc(-c2cncc(F)c2)cc1C(F)(F)F)c1csc(NS(=O)(=O)C2CC2)n1 (stereo not shown) [T447]
< 100 nM	CCOc1cncc(-c2ccc(NC(=O)C(CC)c3csc(NS(=O)(=O)C4CC4)n3)c(F)c2)n1 (single isomer, unassigned) [T412, 2-(2-(cyclopropanesulfonamido)thiazol-4-yl)-N-(4-(6-ethoxypyrazin-2-yl)-2-fluorophenyl)butanamide]
< 100 nM	CCc1cncc(-c2ccc(NC(=O)C(C)(C)c3csc(NS(=O)(=O)C4CC4)n3)c(F)c2)n1 [T356, 2-(2-(cyclopropanesulfonamido)thiazol-4-yl)-N-(4-(6-ethylpyrazin-2-yl)-2-fluorophenyl)-2-methylpropanamide]

Further lines, the compound ahead of its results:

Structure (SMILES)	IC50
CCOc1cncc(-c2ccc(NC(=O)C(NC(=O)OC(C)(C)C)c3csc(NS(=O)(=O)C4CC4)n3)cc2)n1 (stereo not shown) [T407, tert-butyl (1-(2-(cyclopropanesulfonamido)thiazol-4-yl)-2-((4-(6-ethoxypyrazin-2-yl)phenyl)amino)-2-oxoethyl)carbamate]	< 100 nM
Cc1sc(NS(=O)(=O)C2CC2)nc1C(C)(C)C(=O)Nc1ccc(-c2cncc(C(F)(F)F)n2)cn1 [T340, 2-(2-(cyclopropanesulfonamido)-5-methylthiazol-4-yl)-2-methyl-N-(5-(6-(trifluoromethyl)pyrazin-2-yl)pyridin-2-yl)propanamide]	100 to 1000 nM
Cc1sc(NS(=O)(=O)C2CC2)nc1C(C)(C)C(=O)Nc1ccc(-c2cncc(C(F)(F)F)c2)cc1F [T350, 2-(2-(cyclopropanesulfonamido)-5-methylthiazol-4-yl)-N-(2-fluoro-4-(5-(trifluoromethyl)pyridin-3-yl)phenyl)-2-methylpropanamide]	100 to 1000 nM
CCOc1cncc(-c2ccc(NC(=O)C(C)(C)c3csc(NS(=O)(=O)C4CC4)n3)nc2)c1 [T337, 2-(2-(cyclopropanesulfonamido)thiazol-4-yl)-N-(5′-ethoxy-[3,3′-bipyridin]-6-yl)-2-methylpropanamide]	< 100 nM
CCOc1cncc(-c2ccc(NC(=O)C(NC(C)=O)c3csc(NS(=O)(=O)C4CC4)n3)cc2)n1 (stereo not shown) [T326, 2-acetamido-2-(2-(cyclopropanesulfonamido)thiazol-4-yl)-N-(4-(6-ethoxypyrazin-2-yl)phenyl)acetamide]	< 100 nM
COCCC(C(=O)Nc1ccc(-c2cncc(C(F)(F)F)n2)cc1)c1csc(NS(=O)(=O)C2CC2)n1 (stereo not shown) [T437]	< 100 nM
CCOc1cncc(-c2cnc(NC(=O)C(OC)c3csc(NS(=O)(=O)C4CC4)n3)c(F)c2)n1 (stereo not shown) [T445]	< 100 nM
CC(C)c1cncc(-c2ccc(NC(=O)C(C)(C)c3csc(NS(=O)(=O)C4CC4)n3)nc2)n1 [T336, 2-(2-(cyclopropanesulfonamido)thiazol-4-yl)-N-(5-(6-isopropylpyrazin-2-yl)pyridin-2-yl)-2-methylpropanamide]	100 to 1000 nM
CCOc1cncc(-c2ccc(NC(=O)C(C)(C)c3csc(NS(=O)(=O)C4CCCC4)n3)cc2)n1 [T335, 2-(2-(cyclopentanesulfonamido)thiazol-4-yl)-N-(4-(6-ethoxypyrazin-2-yl)phenyl)-2-methylpropanamide]	100 to 1000 nM
CCOc1cncc(-c2ccc(NC(=O)C(C)(C)c3nc(NS(=O)(=O)C4CC4)sc3OC)cc2)n1 [T377, 2-(2-(cyclopropanesulfonamido)-5-methoxythiazol-4-yl)-N-(4-(6-ethoxypyrazin-2-yl)phenyl)-2-methylpropanamide]	100 to 1000 nM
CC(C)(C(=O)Nc1c(F)cc(-c2cncc(Cl)c2)cc1F)c1csc(NS(=O)(=O)C2CC2)n1 [T351, N-(4-(5-chloropyridin-3-yl)-2,6-difluorophenyl)-2-(2-(cyclopropanesulfonamido)thiazol-4-yl)-2-methylpropanamide]	100 to 1000 nM and < 100 nM
CCOc1cncc(-c2cnc(NC(=O)C(CCOC)c3csc(NS(=O)(=O)C4CC4)n3)c(F)c2)n1 (stereo not shown) [T435]	< 100 nM
Cc1c(NC(=O)C(C)(C)c2csc(NS(=O)(=O)C3CC3)n2)ccc(-c2cncc(C#N)c2)c1F [T367, N-(4-(5-cyanopyridin-3-yl)-3-fluoro-2-methylphenyl)-2-(2-(cyclopropanesulfonamido)thiazol-4-yl)-2-methylpropanamide]	< 100 nM
CCS(=O)(=O)Nc1nc(C(C)(C)C(=O)Nc2ccc(-c3cncc(C(F)(F)F)c3)cn2)cs1 [T380, 2-(2-(ethylsulfonamido)thiazol-4-yl)-2-methyl-N-(5′-(trifluoromethyl)-[3,3′-bipyridin]-6-yl)propanamide]	< 100 nM
CCOc1cncc(-c2ccc(NC(=O)C(CCO)c3csc(NS(=O)(=O)C4CC4)n3)cc2)n1 (stereo not shown) [T329, 2-(2-(cyclopropanesulfonamido)thiazol-4-yl)-N-(4-(6-ethoxypyrazin-2-yl)phenyl)-4-hydroxybutanamide]	< 100 nM

— patent US11655246B2, “Aminothiazole compounds as inhibitors of CTPS1” (STEP PHARMA S.A.S., priority 2017, dated 2023)
